Test results: US10588952B2, “Conjugate vaccine using trimming function of ERAP1” (SUMITOMO DAINIPPON PHARMA CO., LTD., priority 2013, dated 2020)
In brackets after ≈: the same amount, converted by molar mass.

Columns and labels:
ERAP1 [1] = molecular target: T1, ERAP1 (Homo sapiens, UniProt Q9NZ08); test: Test of trimming of N-terminal amino acid by ERAP1 (Experimental Example 10, Examples 85-103); type: biochemical; settings: MAGE-A10 254-262 peptide obtained by ERAP1 trimming; from HPLC AUC
Procedure: The peptides synthesized in Examples 85-103 were evaluated for N-terminal amino acid trimming efficiency using ERAP1. 50 μl of ERAP1 solution (10 μg/ml) in pH 8.0, 20 mM Tris.HCl-100 mM NaCl buffer (Tris.HCl buffer) was added to 142 μl of Tris.HCl buffer. 10 mM peptide solution in DMSO (2.0 μl) and 6.0 μL of DMSO were added to the aforementioned ERAP1 solution, and the mixture was blended well and stood at 30° C. […] The peptide to be obtained by trimming was chemically synthesized separately, and analyzed under similar conditions in the absence of the enzyme. The formation ratio of the peptide [MAGE-A10254-262 peptide ([…]) (SEQ ID NO: 19)] obtained by trimming was determined based on the obtained AUC, and is shown in Tables 45 and 46. […]
(§1) pump: UFLC manufactured by Shimadzu […]
(§2) solution: 0.1% TFA H2O(A)-0.1% TFA CH3CN(B) […]
(§3) detection wavelength: λ=220 nm gradient: concentration of SOLUTION B was raised from 10% to 50% from 0.0 min to 8.5 min

ERAP1 [2] = molecular target: T1, ERAP1; test: Test of trimming of N-terminal amino acid by ERAP1 (Experimental Example 11, Examples 50, 56, 64, 67); type: biochemical; settings: Proteinase-3 169-177 peptide obtained by ERAP1 trimming; from HPLC AUC
Procedure: (§4) The peptides synthesized in Examples 50, 56, 64 and 67 were evaluated for N-terminal amino acid trimming efficiency using ERAP1. 50 μl of ERAP1 solution (10 μg/ml) in pH 8.0, 20 mM Tris.HCl-100 mM NaCl buffer (Tris.HCl buffer) was added to 142 μl of Tris.HCl buffer. 10 mM peptide solution in DMSO (2.0 μl) and 6.0 μL of DMSO were added to the aforementioned ERAP1 solution, and the mixture was blended well and stood at 30° C. […] The peptide to be obtained by trimming was chemically synthesized separately, and analyzed under similar conditions in the absence of the enzyme. […]
as §1, §2, §3

ERAP1 [3] = molecular target: T1, ERAP1; test: Time-course changes of trimming of N-terminal amino acid by ERAP1 (Experimental Example 2); type: biochemical; settings: peptide obtained by trimming (SEQ ID NO: 53, 43 or 19), ERAP1 solution 0.5 mg/ml, room temperature
Procedure: 20 μl of ERAP1 solution (0.5 mg/ml) in Tris.HCl buffer was added to 172 μl of Tris.HCl buffer. 10 mM peptide solution in DMSO (8.0 μl) was added to the aforementioned ERAP1 solution, and the mixture was blended well and stood at room temperature. […]
pump: UFLC manufactured by Shimadzu column: Shim-pack XR-ODS 3.0 mmi.d.×75 mm solution: 0.05% TFA H2O(A)-0.05% TFA CH3CN(B) […]
detection wavelength: λ=220 nm gradient: Concentration of SOLUTION B was raised from 1.0% 70% from 0.0 min to 5.0 min […]
The peptide to be obtained by the trimming of the N-terminal amino acid(s) by ERAP1 is, […]

ERAP1 [4] = molecular target: T1, ERAP1; test: Test of trimming of N-terminal amino acid by ERAP1 (Experimental Example 9, Examples 69-84); type: biochemical; settings: MAGE-A10 254-262 peptide obtained by ERAP1 trimming; from HPLC AUC;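 note: peptide incubated with ERAP1 for 1 h before HPLC analysis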
Procedure: as §4, with “69-84” for “50, 56, 64 and 67”, “peptide” for “peptide to be”
as §1, §2, §3

T1 sequence (Q9NZ08 whole entry): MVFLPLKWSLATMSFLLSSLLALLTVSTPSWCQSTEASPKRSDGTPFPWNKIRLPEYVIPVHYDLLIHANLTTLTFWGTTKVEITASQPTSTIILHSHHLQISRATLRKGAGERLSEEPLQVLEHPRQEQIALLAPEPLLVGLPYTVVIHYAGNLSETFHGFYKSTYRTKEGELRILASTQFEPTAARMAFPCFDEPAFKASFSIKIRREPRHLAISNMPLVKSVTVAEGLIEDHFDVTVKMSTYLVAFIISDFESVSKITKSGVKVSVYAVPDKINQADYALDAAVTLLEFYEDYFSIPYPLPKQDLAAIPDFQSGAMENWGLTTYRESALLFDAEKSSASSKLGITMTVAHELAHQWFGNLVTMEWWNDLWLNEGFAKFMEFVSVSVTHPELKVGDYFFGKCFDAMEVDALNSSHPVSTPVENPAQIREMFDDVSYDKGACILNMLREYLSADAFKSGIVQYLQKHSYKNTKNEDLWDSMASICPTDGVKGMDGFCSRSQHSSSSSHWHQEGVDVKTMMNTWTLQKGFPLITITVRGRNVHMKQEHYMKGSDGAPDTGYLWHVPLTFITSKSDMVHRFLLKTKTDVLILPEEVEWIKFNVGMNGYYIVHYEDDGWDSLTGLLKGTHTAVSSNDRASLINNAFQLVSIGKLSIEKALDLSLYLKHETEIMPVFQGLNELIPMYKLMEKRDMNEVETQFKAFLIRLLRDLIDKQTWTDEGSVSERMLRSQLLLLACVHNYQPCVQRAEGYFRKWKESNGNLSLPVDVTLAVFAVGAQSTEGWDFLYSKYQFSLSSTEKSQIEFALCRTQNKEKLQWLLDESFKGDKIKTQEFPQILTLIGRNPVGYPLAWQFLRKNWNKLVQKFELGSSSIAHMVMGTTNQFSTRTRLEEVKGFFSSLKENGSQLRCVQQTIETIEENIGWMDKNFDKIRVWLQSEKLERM
Procedure for physchem: To prepare a test solution, about 1 mg of a test product was measured and the isotonic buffer (0.5 mL) was added thereto. The prepared solution was shaken at room temperature for 90 min (shaking conditions: RECIPRO SHAKER SR-1N manufactured by TAITEC, Speed=8), centrifuged (15000 rpm, 5 min, room temperature), and the supernatant after centrifugation was used as a test solution.
About 1 mg of the test product was accurately measured, dissolved in 0.1% TFA water/acetonitrile=1/1, made the total amount 10 mL, and this was used as a standard solution of the test product.
The standard solution of the test product and the test solution are analyzed by HPLC (under the analysis conditions described in Table 34), and the solubility of the test product is calculated from the ratio of peak area compared to the standard solution.
column: Chemcopack Quicksorb (4.6 mmφ×150 mm, 5 μm)
manufactured by Chemco Scientific Co., Ltd.
mobile phase: SOLUTION A; 0.1% TFA water, SOLUTION B;
0.1% TFA acetonitrile solution
column temperature: room temperature
detection wavelength: UV 254 nm, 230 nm (2 wavelength detection)
sample injection volume: 10

Molecule: CC[C@H](C)[C@H](NC(=O)[C@H](CCCCN)NC(=O)[C@@H](N)CSSC[C@H](N)C(=O)NCC(=O)N[C@@H](CC(C)C)C(=O)N[C@@H](Cc1ccc(O)cc1)C(=O)N[C@@H](CC(=O)O)C(=O)NCC(=O)N[C@@H](CCSC)C(=O)N[C@@H](CCC(=O)O)C(=O)N[C@@H](Cc1c[nH]cn1)C(=O)N[C@@H](CC(C)C)C(=O)O)C(=O)N[C@@H](Cc1ccccc1)C(=O)NCC(=O)N[C@@H](CO)C(=O)N[C@@H](CC(C)C)C(=O)N[C@@H](C)C(=O)N[C@@H](Cc1ccccc1)C(=O)N[C@@H](CC(C)C)C(=O)O [Example 29]
- solubility thermodynamic at 90 min (physchem; pH 6): 170 µg/mL (≈ 76.1 µM)
- solubility thermodynamic at 90 min (physchem; pH 7.4): > 1000 µg/mL

Molecule: CC[C@H](C)[C@H](NC(=O)[C@H](CCCCN)NC(=O)[C@@H](N)CSSC[C@H](N)C(=O)N[C@H](C)C(=O)N[C@@H](CCCCN)C(=O)N[C@@H](Cc1ccccc1)C(=O)N[C@H](C(=O)N[C@@H](C)C(=O)N[C@@H](C)C(=O)N[C@@H](Cc1c[nH]c2ccccc12)C(=O)N[C@H](C(=O)N[C@@H](CC(C)C)C(=O)N[C@@H](CCCCN)C(=O)N[C@@H](C)C(=O)N[C@@H](C)C(=O)N[C@H](C)C(=O)O)[C@@H](C)O)C(C)C)C(=O)N[C@@H](Cc1ccccc1)C(=O)NCC(=O)N[C@@H](CO)C(=O)N[C@@H](CC(C)C)C(=O)N[C@@H](C)C(=O)N[C@@H](Cc1ccccc1)C(=O)N[C@@H](CC(C)C)C(=O)O [Example 112]
- solubility thermodynamic at 90 min (physchem; pH 6): < 1 µg/mL
- solubility thermodynamic at 90 min (physchem; pH 7.4): 2 µg/mL (≈ 0.785 µM)

Molecule: CC[C@H](C)[C@H](NC(=O)[C@H](CCCCN)NC(=O)[C@@H](N)CSSC[C@H](NC(=O)[C@@H](C)NC(=O)[C@H](C)NC(=O)[C@H](C)NC(=O)[C@H](CCCCN)NC(=O)[C@H](CC(C)C)NC(=O)[C@@H](NC(=O)[C@H](Cc1c[nH]c2ccccc12)NC(=O)[C@H](C)NC(=O)[C@H](C)NC(=O)[C@@H](NC(=O)[C@H](Cc1ccccc1)NC(=O)[C@H](CCCCN)NC(=O)[C@@H](C)N)C(C)C)[C@@H](C)O)C(=O)O)C(=O)N[C@@H](Cc1ccccc1)C(=O)NCC(=O)N[C@@H](CO)C(=O)N[C@@H](CC(C)C)C(=O)N[C@@H](C)C(=O)N[C@@H](Cc1ccccc1)C(=O)N[C@@H](CC(C)C)C(=O)O [Example 113]
- solubility thermodynamic at 90 min (physchem; pH 6): < 1 µg/mL
- solubility thermodynamic at 90 min (physchem; pH 7.4): 2 µg/mL (≈ 0.785 µM)

Molecule: CC[C@H](C)[C@H](NC(=O)[C@@H](N)CCCCN)C(=O)N[C@@H](Cc1ccccc1)C(=O)NCC(=O)N[C@@H](CO)C(=O)N[C@@H](CC(C)C)C(=O)N[C@@H](C)C(=O)N[C@@H](Cc1ccccc1)C(=O)N[C@@H](CC(C)C)C(=O)O [SEQ ID NO: 53, reference compound]
- solubility thermodynamic at 90 min (physchem; pH 6): 100 µg/mL (≈ 100 µM)
- solubility thermodynamic at 90 min (physchem; pH 7.4): 123 µg/mL (≈ 124 µM)

Molecule: H-ACGLYDGMEHL-OH [Example 92]
- formation rate of GLYDGMEHL (SEQ ID NO: 19) (ERAP1 [1]): 5.2%

Molecule: H-ACVLQELNVTV-OH [Example 50]
- formation rate of VLQELNVTV (SEQ ID NO: 43) (ERAP1 [2]): 1.8%

Molecule: H-CAGLYDGMEHL-OH [Example 26]
- formation rate(%) 1 hr later (ERAP1 [3]): 87.8%
- formation rate(%) 2 hr later (ERAP1 [3]): 99.4%
- formation rate(%) 4 hr later (ERAP1 [3]): 103%
- formation rate(%) 8 hr later (ERAP1 [3]): 97.5%

Molecule: H-CAVLQELNVTV-OH [Example 22]
- formation rate(%) 1 hr later (ERAP1 [3]): 46.1%
- formation rate(%) 2 hr later (ERAP1 [3]): 49.9%
- formation rate(%) 4 hr later (ERAP1 [3]): 51.3%
- formation rate(%) 8 hr later (ERAP1 [3]): 53.5%

Molecule: H-CDGLYDGMEHL-OH [Example 83]
- formation rate of GLYDGMEHL (SEQ ID NO: 19) (ERAP1 [4]): 25.0%

Molecule: H-CEGLYDGMEHL-OH [Example 70]
- formation rate of GLYDGMEHL (SEQ ID NO: 19) (ERAP1 [4]): 6.2%

Molecule: H-CFGLYDGMEHL-OH [Example 75]
- formation rate of GLYDGMEHL (SEQ ID NO: 19) (ERAP1 [4]): 0.0%

Molecule: H-CGGLYDGMEHL-OH [Example 71]
- formation rate of GLYDGMEHL (SEQ ID NO: 19) (ERAP1 [4]): 0.0%

Molecule: H-CHGLYDGMEHL-OH [Example 72]
- formation rate of GLYDGMEHL (SEQ ID NO: 19) (ERAP1 [4]): 0.0%

Molecule: H-CIGLYDGMEHL-OH [Example 73]
- formation rate of GLYDGMEHL (SEQ ID NO: 19) (ERAP1 [4]): 0.4%

Molecule: H-CKGLYDGMEHL-OH [Example 74]
- formation rate of GLYDGMEHL (SEQ ID NO: 19) (ERAP1 [4]): 0.0%

Molecule: H-CLGLYDGMEHL-OH [Example 27]
- formation rate(%) 1 hr later (ERAP1 [3]): 58.3%
- formation rate(%) 2 hr later (ERAP1 [3]): 94.9%
- formation rate(%) 4 hr later (ERAP1 [3]): 88.4%
- formation rate(%) 8 hr later (ERAP1 [3]): 88.3%

Molecule: H-CLVLQELNVTV-OH [Example 23]
- formation rate(%) 1 hr later (ERAP1 [3]): 31.1%
- formation rate(%) 2 hr later (ERAP1 [3]): 36.9%
- formation rate(%) 4 hr later (ERAP1 [3]): 38.1%
- formation rate(%) 8 hr later (ERAP1 [3]): 36.1%

Molecule: H-CMGLYDGMEHL-OH [Example 28]
- formation rate(%) 1 hr later (ERAP1 [3]): 90.6%
- formation rate(%) 2 hr later (ERAP1 [3]): 103%
- formation rate(%) 4 hr later (ERAP1 [3]): 96.0%
- formation rate(%) 8 hr later (ERAP1 [3]): 101%

Molecule: H-CMVLQELNVTV-OH [Example 24]
- formation rate(%) 1 hr later (ERAP1 [3]): 28.7%
- formation rate(%) 2 hr later (ERAP1 [3]): 34.5%
- formation rate(%) 4 hr later (ERAP1 [3]): 36.5%
- formation rate(%) 8 hr later (ERAP1 [3]): 36.8%

Molecule: H-CNGLYDGMEHL-OH [Example 82]
- formation rate of GLYDGMEHL (SEQ ID NO: 19) (ERAP1 [4]): 82.2%

Molecule: H-CPGLYDGMEHL-OH [Example 76]
- formation rate of GLYDGMEHL (SEQ ID NO: 19) (ERAP1 [4]): 0.0%

Molecule: H-CQGLYDGMEHL-OH [Example 69]
- formation rate of GLYDGMEHL (SEQ ID NO: 19) (ERAP1 [4]): 56.9%

Molecule: H-CRGLYDGMEHL-OH [Example 81]
- formation rate of GLYDGMEHL (SEQ ID NO: 19) (ERAP1 [4]): 0.0%

Molecule: H-CSGLYDGMEHL-OH [Example 84]
- formation rate of GLYDGMEHL (SEQ ID NO: 19) (ERAP1 [4]): 1.1%
